# In patent publication US12660819B2, “Herbicidal derivatives” (SYNGENTA CROP PROTECTION AG, priority 2020, dated 2026):
# How the values were obtained:
# Format in all cases: in vivo
# [1] = system: Amaranthus retoflexus (AMARE); assay: Post-emergence Test (glasshouse, percentage damage to the plant); details: post-emergence spray, 1000 g/ha unless otherwise stated, evaluated after 13 days
# Procedure: (§1) Seeds of a variety of test species are sown in standard soil in pots (Amaranthus retoflexus (AMARE), Solanum nigrum (SOLNI), Setaria faberi (SETFA), Lolium perenne (LOLPE), Echinochloa crus-galli (ECHCG), Ipomoea hederacea (IPOHE), Abutilon theophrasti (ABUTH), Zea mays (ZEAMX), Amaranthus palmeri (AMAPA). After 8 days cultivation under controlled conditions in a glasshouse (at 24° C./16° C., day/night; 14 hours light; 65% humidity), the plants are sprayed with an aqueous spray solution derived from the formulation of the technical active ingredient in acetone/water (50:50) solution containing 0.5% Tween 20 (polyoxyethelyene sorbitan monolaurate, CAS RN 9005-64-5). Compounds are applied at 1000 g/ha unless otherwise stated. The test plants are then grown in a glasshouse under controlled conditions in a glasshouse (at 24° C./16° C., day/night; 14 hours light; 65% humidity) and watered twice daily. After 13 days the test is evaluated for the percentage damage caused to the plant. The biological activities are shown in the following table on a five-point scale (5=81-100%; 4=61-80%; 3=41-60%; 2=21-40%; 1=0-20%).
# [2] = system: Ipomoea hederacea (IPOHE); assay: as above; details: post-emergence spray, 1000 g/ha unless otherwise stated, evaluated after 13 days
# Procedure: as §1
# Setaria faberi (SETFA) [3] = assay: as above; details: post-emergence spray, 1000 g/ha unless otherwise stated, evaluated after 13 days
# Procedure: as §1
# Zea mays (ZEAMX) [4] = assay: as above; details: post-emergence spray, 1000 g/ha unless otherwise stated, evaluated after 13 days
# Procedure: as §1
# [5] = system: Amaranthus retoflexus (AMARE); assay: Pre-emergence Test (glasshouse, percentage damage to the plant); details: 1000 g/ha unless otherwise stated, five-point scale
# Setaria faberi (SETFA) [6] = assay: as above; details: 1000 g/ha unless otherwise stated, five-point scale
# [7] = system: Echinochloa crus-galli (ECHCG); assay: as above; details: 1000 g/ha unless otherwise stated, five-point scale
# [8] = system: Ipomoea hederacea (IPOHE); assay: as above; details: 1000 g/ha unless otherwise stated, five-point scale
# [9] = system: Abutilon theophrasti (ABUTH); assay: as above; details: 1000 g/ha unless otherwise stated, five-point scale
# Zea mays (ZEAMX) [10] = assay: as above; details: 1000 g/ha unless otherwise stated, five-point scale
Compound,"Post-emergence Test AMARE, percentage damage to the plant (five-point scale) [1]","Post-emergence Test IPOHE, percentage damage to the plant (five-point scale) [2]","Post-emergence Test SETFA, percentage damage to the plant (five-point scale) (Setaria faberi (SETFA) [3])","Post-emergence Test ZEAMX, percentage damage to the plant (five-point scale) (Zea mays (ZEAMX) [4])","percentage damage to the plant, AMARE [5]","percentage damage to the plant, SETFA (Setaria faberi (SETFA) [6])","percentage damage to the plant, ECHCG [7]","percentage damage to the plant, IPOHE [8]","percentage damage to the plant, ABUTH [9]","percentage damage to the plant, ZEAMX (Zea mays (ZEAMX) [10])"
"CCn1c(C)c(-c2ccc(Cl)c(Cl)c2)c(=O)c(C(=O)O)c1-c1ccc(Cl)cc1 [Compound 195, 2-(4-chlorophenyl)-5-(3,4-dichlorophenyl)-1-ethyl-6-methyl-4-oxo-pyridine-3-carboxylic acid]",4 (4=61-80%),3 (3=41-60%),2 (2=21-40%),2 (2=21-40%),2 (2=21-40%),1 (1=0-20%),2 (2=21-40%),0,0,0
"CCn1c(C)c(-c2cc(C(F)(F)F)ccc2Cl)c(=O)c(C(=O)O)c1-c1ccc(Cl)cc1 [Compound 183, 2-(4-chlorophenyl)-5-[2-chloro-5-(trifluoromethyl)phenyl]-1-ethyl-6-methyl-4-oxo-pyridine-3-carboxylic acid]",3 (3=41-60%),3 (3=41-60%),2 (2=21-40%),3 (3=41-60%),0,0,0,0,0,0
"CCn1c(C)c(-c2cccc(C(F)(F)F)c2F)c(=O)c(C(=O)O)c1-c1ccc(Cl)cc1 [Compound 181, 2-(4-chlorophenyl)-1-ethyl-5-[2-fluoro-3-(trifluoromethyl)phenyl]-6-methyl-4-oxo-pyridine-3-carboxylic acid]",3 (3=41-60%),2 (2=21-40%),3 (3=41-60%),1 (1=0-20%),1 (1=0-20%),5 (5=81-100%),4 (4=61-80%),4 (4=61-80%),4 (4=61-80%),2 (2=21-40%)
"CCn1c(C)c(-c2cc(Cl)cc(Cl)c2)c(=O)c(C(=O)O)c1-c1ccc(Cl)cc1 [Compound 188, 2-(4-chlorophenyl)-5-(3,5-dichlorophenyl)-1-ethyl-6-methyl-4-oxo-pyridine-3-carboxylic acid]",0,1 (1=0-20%),0,1 (1=0-20%),0,0,0,0,0,0
